Experimental data published in patent US9688627B2, “Lactam compounds as EP4 receptor-selective agonists for use in the treatment of EP4-mediated diseases and conditions” (Cayman Chemical Company, Inc., priority 2013, dated 2017).

Key:
[1] = biological target: T1, Human Prostanoid EP4 Receptor (Homo sapiens, UniProt P35408); test: Radioligand binding assay, agonist site of human prostanoid EP4 receptor in transfected HEK-293 cells; details: for inhibition at 0.1 µM: 2 h, pH 6, read-out: hEP4 receptor binding, % @ 100 nM, @ 100 nM test compound; for IC50: read-out: hEP4 receptor binding IC50; for Ki: read-out: hEP4 receptor binding Ki
T1 construct: expressed in transfected cells; host or cells: HEK-293 cells (cell membrane homogenates)
Procedure: Radioligand Binding Assay for the Evaluation of the Affinity of Compounds for the Agonist Site of the Human Prostanoid EP4 Receptor in Transfected HEK-293 Cells
Following incubation, the samples are filtered rapidly under vacuum through glass fiber filters (GF/B, Packard) presoaked with 0.3% PEI and rinsed several times with ice-cold 50 mM Tris-HCl using a 96-sample cell harvester (Unifilter, Packard). The filters are dried then counted for radioactivity in a scintillation counter (Topcount, Packard) using a scintillation cocktail (Microscint 0, Packard).

rat EP4 receptor [2] = biological target: T2, rat EP4 receptor (Rattus norvegicus, UniProt P43114); test: SEAP activity assay on EP4 STEP plate; format: cell-based; details: SEAP luminescence, 6-8 hours of stimulation; read-out: STEP cell functional assay EC50 SEAP/EP4
T2 construct: cells seeded on STEP plates
Excerpt: (§1) 2. […] In addition each concentration had triplicates. […] 4. […] Cover the plate with the lid. […] 6. […] 7. […] 8.

rat EP2 receptor = biological target: T3, rat EP2 receptor (Rattus norvegicus, UniProt Q62928); test: SEAP activity assay on EP2 STEP plate; format: cell-based; details: SEAP luminescence, 6-8 hours of stimulation; read-out: STEP cell functional assay EC50 SEAP/EP2
T3 construct: cells seeded on STEP plates
Excerpt: as §1

rat EP4 receptor [3] = biological target: T2, rat EP4 receptor; test: cAMP level assay on EP4 STEP plate; format: cell-based; details: cAMP by ELISA, 30 minutes, 500 μM IBMX; read-out: STEP cell functional assay EC50 cAMP/EP4
Excerpt: Functional Cellular Assays (STEP Plate Format)
Procedure of cAMP Assay for EP2/EP4 Agonist
3. […] In addition each concentration had triplicates.
6. Aspirate the supernatant.

calvarial bone defect = test: Rat calvarial defect model; format: in vivo, female Sprague Dawley rats; details: 3 mg/ml in calcium phosphate cement/demineralized bone matrix, eight weeks, values only in FIG. 1
Procedure: The rat calvarial defect model is a widely used model through which the ability of a treatment agent to induce bone formation is assessed (Aghaloo et al., The effect of NELL1 and bone morphogenetic protein-2 on calvarial bone regeneration, J. Oral Maxillofac. Surg., 2010, 68, 300-308; Mark et al., Repair of calvarial nonunions by osteogenin, a bone-inductive protein, Plast. Reconstr. Surg., 1990, 86, 623-30). Bone defects are created by removal of bone from the cranium of female Sprague Dawley rats by a bone trephine (cranial defect). Cranial defects are 2.6 mm in diameter and the cranium approximately 1 mm thick. A matrix of approximately 2 mm thickness is applied to the defect. Thus the dosing volume for each defect is calculated as π*r^2*matrix thickness=3.14*1.3^2*2=10.61 μl and rounded to 11 μl for purposes of dose calculation. Example 2E is delivered set inside calcium phosphate cement that, after loading with drug and setting, is ground to a fine powder and suspended in demineralized bone matrix at a ratio of 1:8 (weight/volume). Example 2E is tested at one dose of 3 mg/ml with five rats in the test group. […] The area measured at eight weeks was compared to the area of the original defect and the degree of repair calculated by the following formula: (original area-current area)/original area*100 The mean repair for each group after eight weeks of treatment is shown in the FIG. 1.

T2 sequence (P43114 whole entry): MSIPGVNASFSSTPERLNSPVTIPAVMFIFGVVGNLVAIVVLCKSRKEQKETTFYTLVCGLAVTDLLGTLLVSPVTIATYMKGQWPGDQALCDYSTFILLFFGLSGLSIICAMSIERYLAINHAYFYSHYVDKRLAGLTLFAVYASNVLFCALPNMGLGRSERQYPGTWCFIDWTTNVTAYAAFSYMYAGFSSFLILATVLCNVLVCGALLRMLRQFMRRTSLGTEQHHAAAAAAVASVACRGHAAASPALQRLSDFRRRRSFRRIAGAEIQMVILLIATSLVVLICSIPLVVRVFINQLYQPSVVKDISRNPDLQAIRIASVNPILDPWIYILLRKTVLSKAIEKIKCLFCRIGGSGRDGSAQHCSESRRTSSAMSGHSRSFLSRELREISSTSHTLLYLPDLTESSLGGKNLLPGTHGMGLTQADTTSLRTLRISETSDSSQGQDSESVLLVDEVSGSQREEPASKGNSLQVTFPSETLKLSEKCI
T3 sequence (Q62928 whole entry): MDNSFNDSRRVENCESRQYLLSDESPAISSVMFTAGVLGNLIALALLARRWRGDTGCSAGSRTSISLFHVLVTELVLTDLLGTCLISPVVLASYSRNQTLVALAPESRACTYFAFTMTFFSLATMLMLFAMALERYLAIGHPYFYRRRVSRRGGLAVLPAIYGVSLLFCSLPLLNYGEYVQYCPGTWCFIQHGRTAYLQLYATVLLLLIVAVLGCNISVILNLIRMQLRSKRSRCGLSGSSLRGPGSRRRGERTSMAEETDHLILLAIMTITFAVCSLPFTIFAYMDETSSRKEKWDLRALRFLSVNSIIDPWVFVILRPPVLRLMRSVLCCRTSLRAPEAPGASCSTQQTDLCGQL
T1 sequence (P35408 whole entry): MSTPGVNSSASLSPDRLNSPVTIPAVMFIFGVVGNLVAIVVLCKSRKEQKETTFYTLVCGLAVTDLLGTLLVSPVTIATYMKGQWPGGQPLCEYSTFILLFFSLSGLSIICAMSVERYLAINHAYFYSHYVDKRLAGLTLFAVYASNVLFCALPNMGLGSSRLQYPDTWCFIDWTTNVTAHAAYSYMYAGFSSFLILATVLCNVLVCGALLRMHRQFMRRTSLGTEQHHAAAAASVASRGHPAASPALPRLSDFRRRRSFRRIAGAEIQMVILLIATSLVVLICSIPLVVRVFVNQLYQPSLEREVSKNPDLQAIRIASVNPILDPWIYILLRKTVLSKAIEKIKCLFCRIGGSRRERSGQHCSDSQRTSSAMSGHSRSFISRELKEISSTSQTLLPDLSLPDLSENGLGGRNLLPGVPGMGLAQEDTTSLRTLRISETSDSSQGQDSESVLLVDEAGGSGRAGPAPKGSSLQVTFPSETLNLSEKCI

| SMILES | inhibition at 0.1 µM [1] | EC50 (rat EP4 receptor [2]) | EC50 (rat EP2 receptor) | IC50 [1] | Ki [1] | EC50 (rat EP4 receptor [3]) | melting point | Healing of a calvarial bone defect (calvarial bone defect) |
| --- | --- | --- | --- | --- | --- | --- | --- | --- |
| CC#CCC(C)[C@H](O)/C=C/[C@H]1CCC(=O)N1CCc1ccc(C(=O)O)cc1 (mixture of isomers) [Example 8C, 4-(2-((2R)-2-((3S,4R/S,E)-3-hydroxy-4-methyloct-1-en-6-yn-1-yl)-5-oxopyrrolidin-1-yl)ethyl)benzoic acid] |  | 0.19 nM | 120 nM | 1.3 nM | 0.47 nM |  |  |  |
| CCC#CC[C@H](C)[C@H](O)/C=C/[C@H]1CCC(=O)N1CCc1ccc(C(=O)O)cc1 [Example 9C, 4-(2-((R)-2-((3S,4S,E)-3-hydroxy-4-methylnon-1-en-6-yn-1-yl)-5-oxopyrrolidin-1-yl)ethyl)benzoic acid] |  | 0.02 nM |  | 0.67 nM | 0.25 nM | 0.31 nM |  |  |
| CCC#CC[C@H](C)[C@H](O)/C=C/[C@H]1CCC(=O)N1CCCc1ccc(C(=O)O)s1 [Example 17D, 5-(3-((R)-2-((3S,4S,E)-3-hydroxy-4-methylnon-1-en-6-yn-1-yl)-5-oxopyrrolidin-1-yl)propyl)thiophene-2-carboxylic acid] |  | 0.32 nM | 5300 nM | 6.1 nM | 2.3 nM | 1.54 nM |  |  |
| CC(CC#Cc1ccccc1)[C@H](O)/C=C/[C@H]1CCC(=O)N1CCCc1ccc(C(=O)O)s1 (stereo partly drawn) [Example 18C, 5-(3-((2R)-2-((3S,E)-3-hydroxy-4-methyl-7-phenylhept-1-en-6-yn-1-yl)-5-oxopyrrolidin-1-yl)propyl)thiophene-2-carboxylic acid] |  | < 0.01 nM | > 10000 nM |  |  |  |  |  |
| CC(CC#Cc1ccccc1)[C@@H](O)/C=C/[C@H]1CCC(=O)N1CCCc1ccc(C(=O)O)s1 (stereo partly drawn) [Example 18D, 5-(3-((2R)-2-((3R,E)-3-hydroxy-4-methyl-7-phenylhept-1-en-6-yn-1-yl)-5-oxopyrrolidin-1-yl)propyl)thiophene-2-carboxylic acid] |  | 2.03 nM | > 10000 nM |  |  |  |  |  |

More lines, main results first:

| inhibition at 0.1 µM [1] | EC50 (rat EP4 receptor [2]) | EC50 (rat EP2 receptor) | IC50 [1] | Ki [1] | EC50 (rat EP4 receptor [3]) | melting point | SMILES | Healing of a calvarial bone defect (calvarial bone defect) |
| --- | --- | --- | --- | --- | --- | --- | --- | --- |
| 86% | 0.67 nM | 760 nM |  |  |  |  | CC#CCC(C)[C@H](O)/C=C/[C@H]1CCC(=O)N1CCCCCCC(=O)O (mixture of isomers) [Example 1C, 7-((2R)-2-((3S,4R/S,E)-3-hydroxy-4-methyloct-1-en-6-yn-1-yl)-5-oxopyrrolidin-1-yl)heptanoic acid] |  |
| 11% | 4.82 nM | > 10000 nM |  |  |  |  | CC#CCC(C)[C@@H](O)/C=C/[C@H]1CCC(=O)N1CCCCCCC(=O)O (mixture of isomers) [Example 1D, 7-((2R)-2-((3R,4R/S,E)-3-hydroxy-4-methyloct-1-en-6-yn-1-yl)-5-oxopyrrolidin-1-yl)heptanoic acid] |  |
|  | 0.064 nM | 905 nM | 4 nM | 1.5 nM |  |  | CCC#CCC(C)[C@H](O)/C=C/[C@H]1CCC(=O)N1CCCCCCC(=O)O (mixture of isomers) [Example 2C, 7-((2R)-2-((3S,4R/S,E)-3-hydroxy-4-methylnon-1-en-6-yn-1-yl)-5-oxopyrrolidin-1-yl)heptanoic acid] |  |
|  | 0.57 nM | 800 nM | 3.9 nM | 1.5 nM | 2.98 nM | 113 to 114 °C | CC#CC[C@H](C)[C@H](O)/C=C/[C@H]1CCC(=O)N1CCCCCCC(=O)O [Example 1E, 7-((R)-2-((3S,4S,E)-3-hydroxy-4-methyloct-1-en-6-yn-1-yl)-5-oxopyrrolidin-1-yl)heptanoic acid] |  |
|  | 5.79 nM | 184 nM | 18 nM | 6.9 nM |  | 100 to 101 °C | CC#CC[C@@H](C)[C@H](O)/C=C/[C@H]1CCC(=O)N1CCCCCCC(=O)O [Example 1F, 7-((R)-2-((3S,4R,E)-3-hydroxy-4-methyloct-1-en-6-yn-1-yl)-5-oxopyrrolidin-1-yl)heptanoic acid] |  |
|  | 0.19 ± 0.07 nM |  | 3 nM | 1.1 nM | 0.96 ± 0.46 nM |  | CCC#CC[C@H](C)[C@H](O)/C=C/[C@H]1CCC(=O)N1CCCCCCC(=O)O [Example 2E, 7-((R)-2-((3S,4S,E)-3-hydroxy-4-methylnon-1-en-6-yn-1-yl)-5-oxopyrrolidin-1-yl)heptanoic acid] | Accelerated Healing |
